Results reported in patent US4335249A, “Herbicidal diphenyl ethers, sulfides, sulfoxides and sulfones” (Rohm and Haas Company, priority 1976, dated 1982).

What was measured:
Format in all cases: in vivo
[1] = system: cocklebur (Xanthium pensylvanicum); assay: Preemergence herbicidal activity, cocklebur; details: for pest or weed control at 4483.4 g/ha: 4 lb/A
Outline: (§1)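 Spray application (acetone, water dilution; 50 gal per acre carrier; dose as lb/A) onto seeded soil flats. Preemergence flats sprayed on the day of planting; postemergence flats after two weeks of germination. Kill % evaluated about two weeks afterward.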

marigold (Tagetes spp.) [2] = assay: Preemergence herbicidal activity, marigold; details: for pest or weed control at 4483.4 g/ha: 4 lb/A
Outline: as §1

[3] = system: morningglory (Ipomoca spp.); assay: Preemergence herbicidal activity, morningglory; details: for pest or weed control at 4483.4 g/ha: 4 lb/A
Outline: as §1

[4] = system: tomato (Lycopersicon esculentum); assay: Preemergence herbicidal activity, tomato; details: Pre; for pest or weed control at 4483.4 g/ha: 4 lb/A
Outline: as §1

[5] = system: velvetleaf (Abutilon theophrasti); assay: Preemergence herbicidal activity, velvetleaf; details: Pre; for pest or weed control at 4483.4 g/ha: 4 lb/A
Outline: as §1

[6] = system: barnyardgrass (Echinochloa crusgalli); assay: Preemergence herbicidal activity, barnyardgrass; details: Pre; for pest or weed control at 4483.4 g/ha: 4 lb/A
Outline: (§2)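 Flats of soil-planted weed seeds were treated either right after sowing (preemergence) or two weeks after germination (postemergence). Application was a spray of acetone solution diluted in water, 50 gallons per acre carrier, dosed in lb/A.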

[7] = system: downybrome (Bromus tectorum); assay: Preemergence herbicidal activity, downybrome; details: Pre; for pest or weed control at 4483.4 g/ha: 4 lb/A
Outline: as §1

foxtail (Setaria spp.) [8] = assay: Preemergence herbicidal activity, foxtail; details: Pre; for pest or weed control at 4483.4 g/ha: 4 lb/A
Outline: as §1

[9] = system: yellow nutsedge (Cyperus esculentus); assay: Preemergence herbicidal activity, yellow nutsedge; details: for pest or weed control at 4483.4 g/ha: 4 lb/A
Outline: as §1

wild oats (Avena fatua) [10] = assay: Preemergence herbicidal activity, wild oats; details: Pre; for pest or weed control at 4483.4 g/ha: 4 lb/A
Outline: as §1

[11] = system: cocklebur (Xanthium pensylvanicum); assay: Postemergence herbicidal activity, cocklebur; details: for pest or weed control at 4483.4 g/ha: 4 lb/A
Outline: as §1

marigold (Tagetes spp.) [12] = assay: Postemergence herbicidal activity, marigold; details: for pest or weed control at 4483.4 g/ha: 4 lb/A
Outline: as §1

[13] = system: morningglory (Ipomoca spp.); assay: Postemergence herbicidal activity, morningglory; details: for pest or weed control at 4483.4 g/ha: 4 lb/A
Outline: as §1

[14] = system: tomato (Lycopersicon esculentum); assay: Postemergence herbicidal activity, tomato; details: Post; for pest or weed control at 4483.4 g/ha: 4 lb/A
Outline: as §1

[15] = system: velvetleaf (Abutilon theophrasti); assay: Postemergence herbicidal activity, velvetleaf; details: for pest or weed control at 4483.4 g/ha: 4 lb/A
Outline: as §2

[16] = system: barnyardgrass (Echinochloa crusgalli); assay: Postemergence herbicidal activity, barnyardgrass; details: Post; for pest or weed control at 4483.4 g/ha: 4 lb/A
Outline: as §2

[17] = system: downybrome (Bromus tectorum); assay: Postemergence herbicidal activity, downybrome; details: Post; for pest or weed control at 4483.4 g/ha: 4 lb/A
Outline: as §1

foxtail (Setaria spp.) [18] = assay: Postemergence herbicidal activity, foxtail; details: Post; for pest or weed control at 4483.4 g/ha: 4 lb/A
Outline: as §1

[19] = system: yellow nutsedge (Cyperus esculentus); assay: Postemergence herbicidal activity, yellow nutsedge; details: for pest or weed control at 4483.4 g/ha: 4 lb/A
Outline: as §1

wild oats (Avena fatua) [20] = assay: Postemergence herbicidal activity, wild oats; details: Post; for pest or weed control at 4483.4 g/ha: 4 lb/A
Outline: as §1

[21] = Xanthium strumarium, pre-emergence, 336 h
[22] = Solanum lycopersicum, pre-emergence, 336 h
[23] = Abutilon theophrasti, pre-emergence, 336 h
[24] = Echinochloa crus-galli, pre-emergence, 336 h
[25] = Bromus tectorum, pre-emergence, 336 h
[26] = Avena fatua, pre-emergence, 336 h, read-out: % control, Wild oat
[27] = Xanthium strumarium, post-emergence, 336 h
[28] = Solanum lycopersicum, post-emergence, 336 h
[29] = Abutilon theophrasti, post-emergence, 336 h
[30] = Echinochloa crus-galli, post-emergence, 336 h
[31] = Bromus tectorum, post-emergence, 336 h
[32] = Avena fatua, post-emergence, 336 h, read-out: % control, Wild oat

| Structure (SMILES) | pest or weed control at 4483.4 g/ha [1, 21] | pest or weed control at 4483.4 g/ha (marigold (Tagetes spp.) [2]; pre-emergence, 336 h) | pest or weed control at 4483.4 g/ha ([3]; Ipomoea, pre-emergence, 336 h) | pest or weed control at 4483.4 g/ha [4, 22] | pest or weed control at 4483.4 g/ha [5, 23] | pest or weed control at 4483.4 g/ha [6, 24] | pest or weed control at 4483.4 g/ha [7, 25] | pest or weed control at 4483.4 g/ha (foxtail (Setaria spp.) [8]; Setaria, pre-emergence, 336 h) | pest or weed control at 4483.4 g/ha ([9]; Cyperus, pre-emergence, 336 h) | pest or weed control at 4483.4 g/ha (wild oats (Avena fatua) [10]; [26]) | pest or weed control at 4483.4 g/ha [11, 27] | pest or weed control at 4483.4 g/ha (marigold (Tagetes spp.) [12]; post-emergence, 336 h) | pest or weed control at 4483.4 g/ha ([13]; Ipomoea, post-emergence, 336 h) | pest or weed control at 4483.4 g/ha [14, 28] | pest or weed control at 4483.4 g/ha [15, 29] | pest or weed control at 4483.4 g/ha [16, 30] | pest or weed control at 4483.4 g/ha [17, 31] | pest or weed control at 4483.4 g/ha (foxtail (Setaria spp.) [18]; Setaria, post-emergence, 336 h) | pest or weed control at 4483.4 g/ha ([19]; Cyperus, post-emergence, 336 h) | pest or weed control at 4483.4 g/ha (wild oats (Avena fatua) [20]; [32]) | further results |
| --- | --- | --- | --- | --- | --- | --- | --- | --- | --- | --- | --- | --- | --- | --- | --- | --- | --- | --- | --- | --- | --- |
| CCOC(=O)C(C)Oc1ccc([S+]([O-])c2ccc(C(F)(F)F)cc2Cl)cc1 (centres unmarked) [Example 42] | 0% | 0% | 0% | 0% | 40% | 95% | 40% | 99% | 0% | 20% | 0% | 0% | 0% | 0% | 0% | 0% | 0% | 0% | 0% | 0% | – |
| CCOC(=O)C(C)Oc1ccc([S+]([O-])c2ccccc2C(F)(F)F)cc1 (centres unmarked) [Example 49, Ethyl 2-[4-(2-trifluoromethylphenylsulfinyl)phenoxy]propionate] | 0% | 0% | 0% | 0% | 0% | 0% | 0% | 0% | 0% | 0% | 0% | 0% | 0% | 20% | 20% | 20% | 0% | 20% | 0% | 30% | – |
| CCOC(=O)C(C)Oc1ccc(Oc2ccc(C(F)(F)F)cc2C#N)cc1 (centres unmarked) [Example 37] | – | – | – | – | – | – | – | – | – | – | – | – | – | – | – | – | – | – | – | – | pest or weed control at 2241.7 g/ha ([1]; Xanthium strumarium, pre-emergence, 336 h, 2 lb/A): 0%; pest or weed control at 2241.7 g/ha (marigold (Tagetes spp.) [2]; pre-emergence, 336 h, 2 lb/A): 0%; pest or weed control at 2241.7 g/ha ([3]; Ipomoea, pre-emergence, 336 h, 2 lb/A): 40%; pest or weed control at 2241.7 g/ha ([4]; Solanum lycopersicum, pre-emergence, 336 h, 2 lb/A): 20%; pest or weed control at 2241.7 g/ha ([5]; Abutilon theophrasti, pre-emergence, 336 h, 2 lb/A): 20%; pest or weed control at 2241.7 g/ha ([6]; Echinochloa crus-galli, pre-emergence, 336 h, 2 lb/A): 100%; pest or weed control at 2241.7 g/ha ([7]; Bromus tectorum, pre-emergence, 336 h, 2 lb/A): 95%; pest or weed control at 2241.7 g/ha (foxtail (Setaria spp.) [8]; Setaria, pre-emergence, 336 h, 2 lb/A): 60%; pest or weed control at 2241.7 g/ha ([9]; Cyperus, pre-emergence, 336 h, 2 lb/A): 0%; pest or weed control at 2241.7 g/ha (wild oats (Avena fatua) [10]; Avena fatua, pre-emergence, 336 h, 2 lb/A, read-out: % control, Wild oat): 0%; pest or weed control at 2241.7 g/ha ([11]; Xanthium strumarium, post-emergence, 336 h, 2 lb/A): 30%; pest or weed control at 2241.7 g/ha (marigold (Tagetes spp.) [12]; post-emergence, 336 h, 2 lb/A): 10%; pest or weed control at 2241.7 g/ha ([13]; Ipomoea, post-emergence, 336 h, 2 lb/A): 10%; pest or weed control at 2241.7 g/ha ([14]; Solanum lycopersicum, post-emergence, 336 h, 2 lb/A): 30%; pest or weed control at 2241.7 g/ha ([15]; Abutilon theophrasti, post-emergence, 336 h, 2 lb/A): 0%; pest or weed control at 2241.7 g/ha ([16]; Echinochloa crus-galli, post-emergence, 336 h, 2 lb/A): 100%; pest or weed control at 2241.7 g/ha ([17]; Bromus tectorum, post-emergence, 336 h, 2 lb/A): 90%; pest or weed control at 2241.7 g/ha (foxtail (Setaria spp.) [18]; Setaria, post-emergence, 336 h, 2 lb/A): 95%; pest or weed control at 2241.7 g/ha ([19]; Cyperus, post-emergence, 336 h, 2 lb/A): 0%; pest or weed control at 2241.7 g/ha (wild oats (Avena fatua) [20]; Avena fatua, post-emergence, 336 h, 2 lb/A, read-out: % control, Wild oat): 90% |
| CC(Oc1ccc(Oc2ccc(C(F)(F)F)cc2Cl)cc1)C(=O)O (centres unmarked) [Example 17] | – | – | – | – | – | – | – | – | – | – | – | – | – | – | – | – | – | – | – | – | % control, Cocklebur ([1]; Pre, 2 lb/A): 0%; % control, Marigold (marigold (Tagetes spp.) [2]; Pre, 2 lb/A): 0%; % control, Morningglory ([3]; Pre, 2 lb/A): 0%; % control, Tomato ([4]; 2 lb/A): 0%; % control, Velvetleaf ([5]; 2 lb/A): 0%; % control, Barnyardgrass ([6]; 2 lb/A): 100%; % control, Downybrome ([7]; 2 lb/A): 30%; % control, Foxtail (foxtail (Setaria spp.) [8]; 2 lb/A): 100%; % control, Nutsedge ([9]; Pre, 2 lb/A): 0%; % control, Wild oat (wild oats (Avena fatua) [10]; 2 lb/A): 95%; % control, Cocklebur ([11]; Post, 2 lb/A): 0%; % control, Marigold (marigold (Tagetes spp.) [12]; Post, 2 lb/A): 0%; % control, Morningglory ([13]; Post, 2 lb/A): 0%; % control, Tomato ([14]; 2 lb/A): 0%; % control, Velvetleaf ([15]; Post, 2 lb/A): 0%; % control, Barnyardgrass ([16]; 2 lb/A): 99%; % control, Downybrome ([17]; 2 lb/A): 0%; % control, Foxtail (foxtail (Setaria spp.) [18]; 2 lb/A): 90%; % control, Nutsedge ([19]; Post, 2 lb/A): 0%; % control, Wild oat (wild oats (Avena fatua) [20]; 2 lb/A): 80% |
